{
  "source": "patent US8404866B2",
  "about": "“Substituted heterocyclic mercaptosulfonamide metalloprotease inhibitors” (Florida State University Research Foundation, priority 2008, dated 2013)",
  "key": {"kidneys": {"tested_on": "kidneys", "settings": "given prior to disease induction; cited from earlier work"}, "[1]": {"tested_on": "experimental autoimmune uveitis", "settings": "cited from earlier work"}, "blood-brain barrier": {"tested_on": "blood-brain barrier", "settings": "ischemia reperfusion model in the rat; cited from earlier work"}, "EAN animal model": {"tested_on": "EAN animal model", "settings": "cited from earlier work"}, "brain": {"tested_on": "brain", "settings": "following hemorrhage; cited from earlier work"}, "[2]": {"biological_target": "T1, MMP-2 (HFG; human fibroblast gelatinase) (Homo sapiens, UniProt P08253)", "T1 sequence (P08253 110-660)": "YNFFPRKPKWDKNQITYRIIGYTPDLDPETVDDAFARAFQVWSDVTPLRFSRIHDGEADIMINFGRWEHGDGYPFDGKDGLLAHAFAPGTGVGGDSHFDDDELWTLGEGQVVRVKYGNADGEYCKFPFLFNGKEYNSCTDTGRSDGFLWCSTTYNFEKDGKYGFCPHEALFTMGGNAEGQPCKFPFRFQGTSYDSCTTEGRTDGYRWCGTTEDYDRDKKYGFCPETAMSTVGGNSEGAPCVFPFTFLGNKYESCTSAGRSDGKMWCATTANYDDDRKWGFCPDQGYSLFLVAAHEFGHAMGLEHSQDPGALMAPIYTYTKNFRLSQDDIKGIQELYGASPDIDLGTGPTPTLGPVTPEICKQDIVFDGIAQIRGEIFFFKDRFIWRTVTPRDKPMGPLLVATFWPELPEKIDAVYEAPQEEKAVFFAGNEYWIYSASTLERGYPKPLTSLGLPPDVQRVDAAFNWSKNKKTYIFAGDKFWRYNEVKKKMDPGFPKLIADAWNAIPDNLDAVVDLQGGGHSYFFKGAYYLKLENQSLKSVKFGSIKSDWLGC", "test": "Enzyme kinetic assay, inhibition of MMP-2", "type": "biochemical", "settings": "read-out: Ki (value in parentheses), HFG MMP-2", "source_text": "(§1) The following protocol was used to obtain the data found in the following table. Materials: The fluorescent peptide substrates for matrix metalloproteinases (MMPs) used were purchased from Bachem Chem. Co. The metal salts and Brij-35 were purchased from Fisher Scientific Inc. All other chemicals were purchased from Sigma-Aldrich Chem. Co. The sources and biochemical characterizations of multiple MMPs, including MMP-1/human fibroblast collagenase (HFC), MMP-2/human fibroblast gelatinase (HFG), MMP-8/human neutrophil collagenase (HNC), and MMP-9/human neutrophil gelatinase (HNG), MMP-7/human matrilysin (MLN), MMP-3/human fibroblast stromelysin-1 (HFS), human recombinant catalytic domain of membrane-type 1 matrix metalloproteinase (cdMT1-MMP), catalytic domain of MMP-12/metalloelastase (cdMET), and MMP-26/human endometase (EDM) were described previously (Sang, Q. X., Birkedal-Hansen, H., and Van Wart, H. E. Proteolytic and non-proteolytic activation of human neutrophil progelatinase B. Biochim. Biophys. Acta. 1995; 1251, 99-108; Sang, Q. A., Bodden, M. K., and Windsor, L. J. Activation of human progelatinase A by collagenase and matrilysin: activation of procollagenase by matrilysin. J. Protein. Chem. 1996; 15, 243-253; Li, H., Bauzon, D. E., Xu, X., Tschesche, H., Cao, J., and Sang, Q.-X. A. Immunological characterization of cell-surface and soluble forms of membrane type 1 matrix metalloproteinase in human breast cancer cells and in fibroblasts. Molec. Carcinog. 1998; 22, 84-94; Park, H. I., Ni, J., Gerkema, F. E., Liu, D., Belozerov, V. E., and Sang, Q.-X. A. Identification and characterization of human endometase (Matrix metalloproteinase-26) from endometrial tumor. J. Biol. Chem., 2000; 275, 20540-20544). The active concentrations of MMPs were determined by titration with GM6001, a tight-binding MMP inhibitor, as described previously (Park, H. I., Turk, B. E., Gerkema, F. E., Cantley, L. C., and Sang, Q.-X. A. Peptide substrate specificities and protein cleavage sites of human endometase/matrilysin-2/matrix metalloproteinase-26. J. Biol. Chem. 2002; 277, 35168-35175).\n(§2) The active inhibitor concentrations were estimated by titrating the mercapto group with 5,5′-dithiobis(2-nitrobenzoic acid) (DTNB; Ellman's reagent) as described previously (Ellman, G. L. A colorimetric method for determining low concentrations of mercaptans. Arch. Biochem. Biophys. 1958; 74, 443-450; Ellman, G. L. Tissue sulfhydryl groups. Arch. Biochem. Biophys. 1959; 82, 70-77; Riddles, P. W., Blakeley, R. L., and Zerner, B. Ellman's reagent: 5,5′-dithiobis(2-nitrobenzoic acid)—a reexamination. Anal. Biochem. 1979; 94, 75-81). Briefly, the reaction of DTNB with the mercapto group produces 2-nitro-5-thiobenzoic acid (TNB). The concentration of TNB is then measured by monitoring the absorbance at 412 nm. Cysteine was used to generate the standard curve with a molar extinction coefficient of 14,000±500 M^−1 cm^−1, which is close to the value in the literature (Riddles, P. W., Blakeley, R. L., and Zerner, B. Ellman's reagent: 5,5′-dithiobis(2-nitrobenzoic acid)—a reexamination. Anal. Biochem. 1979; 94, 75-81).\n(§3) The substrate Mca-PLGLDpaAR-NH2 was used to measure inhibition constants (Knight, C. G., Willenbrock. F., and Murphy, G. A novel coumarin-labelled peptide for sensitive continuous assays of the matrix metalloproteinases. FEBS Lett. 1992; 296, 263-266). Enzymatic assays were performed at 25° C. in 50 mM HEPES buffer at pH 7.5 in the presence of 10 mM CaCl2, 0.2 M NaCl, and 0.01% or 0.05% Brij-35 with substrate concentrations of 1 μM. The release of product was monitored by measuring fluorescence (excitation and emission wavelengths of 328 nm and 393 nm, respectively) with a Perkin Elmer Luminescence Spectrophotometer LS 50B connected to a temperature controlled water bath. All stock solutions of inhibitors were in dimethyl sulfoxide. […]"}, "[3]": {"biological_target": "T2, MMP-1 (HFC; human fibroblast collagenase) (Homo sapiens, UniProt P03956)", "T2 sequence (P03956 100-469)": "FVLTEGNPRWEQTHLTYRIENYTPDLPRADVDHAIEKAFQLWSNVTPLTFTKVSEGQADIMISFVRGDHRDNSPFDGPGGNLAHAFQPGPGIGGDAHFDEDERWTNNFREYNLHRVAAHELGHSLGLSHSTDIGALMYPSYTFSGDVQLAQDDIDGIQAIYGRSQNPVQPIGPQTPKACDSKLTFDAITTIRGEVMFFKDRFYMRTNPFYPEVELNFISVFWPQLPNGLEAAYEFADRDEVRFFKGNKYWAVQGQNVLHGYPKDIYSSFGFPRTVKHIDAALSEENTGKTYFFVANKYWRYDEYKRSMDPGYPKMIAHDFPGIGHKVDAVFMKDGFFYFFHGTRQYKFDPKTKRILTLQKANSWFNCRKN", "test": "Enzyme kinetic assay, inhibition of MMP-1", "type": "biochemical", "settings": "25° C., pH 7.5, substrate 1 μM; read-out: IC50 (value without parentheses), HFC MMP-1", "source_text": "as §1, §2, §3"}, "[4]": {"biological_target": "MMP-3 (HFS; human fibroblast stromelysin-1) (Homo sapiens, UniProt P08254)", "sequence (P08254 100-477)": "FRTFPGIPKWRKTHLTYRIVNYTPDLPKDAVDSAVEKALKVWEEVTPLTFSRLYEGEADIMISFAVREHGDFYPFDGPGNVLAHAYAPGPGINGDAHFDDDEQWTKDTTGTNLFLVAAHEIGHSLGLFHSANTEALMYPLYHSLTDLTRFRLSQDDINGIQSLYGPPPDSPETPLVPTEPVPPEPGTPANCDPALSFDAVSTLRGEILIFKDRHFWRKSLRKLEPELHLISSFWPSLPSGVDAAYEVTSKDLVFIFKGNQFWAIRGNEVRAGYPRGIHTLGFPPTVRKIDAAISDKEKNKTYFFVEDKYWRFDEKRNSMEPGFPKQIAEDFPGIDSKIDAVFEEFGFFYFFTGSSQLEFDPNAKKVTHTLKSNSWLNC", "test": "Enzyme kinetic assay, inhibition of MMP-3", "type": "biochemical", "settings": "read-out: Ki (value in parentheses), HFS MMP-3", "source_text": "as §1, §2, §3"}, "[5]": {"biological_target": "MMP-9 (HNG; human neutrophil gelatinase) (Homo sapiens, UniProt P14780)", "sequence (P14780 94-707)": "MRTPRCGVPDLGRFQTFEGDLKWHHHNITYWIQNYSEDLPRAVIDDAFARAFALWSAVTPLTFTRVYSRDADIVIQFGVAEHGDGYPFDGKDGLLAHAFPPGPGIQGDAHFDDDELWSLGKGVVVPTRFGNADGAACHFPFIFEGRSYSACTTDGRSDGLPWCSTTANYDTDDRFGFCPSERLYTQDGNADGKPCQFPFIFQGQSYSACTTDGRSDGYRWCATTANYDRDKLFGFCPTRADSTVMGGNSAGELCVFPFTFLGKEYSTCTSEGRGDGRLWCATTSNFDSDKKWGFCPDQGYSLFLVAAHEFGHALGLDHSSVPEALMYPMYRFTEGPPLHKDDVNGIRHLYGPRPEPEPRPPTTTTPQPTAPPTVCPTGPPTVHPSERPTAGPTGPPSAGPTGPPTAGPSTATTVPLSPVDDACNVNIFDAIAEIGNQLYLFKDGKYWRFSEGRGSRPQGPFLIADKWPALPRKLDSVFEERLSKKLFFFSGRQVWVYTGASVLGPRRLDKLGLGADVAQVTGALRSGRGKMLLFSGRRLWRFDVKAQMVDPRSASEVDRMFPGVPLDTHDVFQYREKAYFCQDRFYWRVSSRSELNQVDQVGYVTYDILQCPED", "test": "Enzyme kinetic assay, inhibition of MMP-9", "type": "biochemical", "settings": "read-out: Ki (value in parentheses), HNG MMP-9", "source_text": "as §1, §2, §3"}, "EAE animal model": {"tested_on": "EAE animal model", "settings": "administered daily from disease induction or from onset of clinical signs; cited from earlier work"}, "stented arteries": {"tested_on": "stented arteries", "settings": "compared to placebo; cited from earlier work"}, "lethal acute GVHD": {"tested_on": "lethal acute GVHD", "settings": "mouse model of lethal acute GVHD; cited from earlier work"}, "insulin resistance": {"tested_on": "insulin resistance", "settings": "mouse model of insulin resistance; cited from earlier work"}},
  "note": "Structures can show the parent of a compound that is named as a salt.",
  "data": [
    {"molecule": "C=CC[C@H](C(=O)NO)[C@@H](CC(C)C)C(=O)N[C@@H](Cc1ccccc1)C(=O)NC", "note": "[BB-1101]", "values": [
      {"measurement": "inflammatory response and damage", "setting": "kidneys", "result": "significantly reduced"},
      {"measurement": "retinal damage", "setting": "[1]", "result": "shown to reduce retinal damage"},
      {"measurement": "early phases of blood-brain barrier leakage", "setting": "blood-brain barrier", "result": "reduces"},
      {"measurement": "EAN symptoms, inflammation, demyelination, weight loss", "setting": "EAN animal model; given from the initiation of EAN", "result": "prevented the development of symptoms and reduced inflammation, demyelination, and weight loss"},
      {"measurement": "EAN disease severity", "setting": "EAN animal model; given from the onset of symptoms", "result": "significantly reduced disease severity"},
      {"measurement": "secondary brain edema", "setting": "brain", "result": "reduces"}
    ]},
    {"molecule": "O=S(=O)(N[C@H]1CNC[C@@H]1S)c1ccc(Oc2ccccc2)cc1", "note": "[Example 10, (3S,4S)-3-(4-Phenoxybenzenesulfonamido)-4-mercaptopyrrolidine Hydrochloride]", "values": [
      {"measurement": "Ki", "setting": "[2]", "result": 38, "unit": "nM"},
      {"measurement": "IC50", "setting": "[3]", "result": 50, "unit": "µM"},
      {"measurement": "Ki", "setting": "[4]", "result": 5.9, "unit": "µM"},
      {"measurement": "Ki", "setting": "[5]", "result": 210, "unit": "nM"}
    ]},
    {"molecule": "O=S(=O)(N[C@@H]1CNC[C@H]1S)c1ccc(Oc2ccccc2)cc1", "note": "[Example 11, (3R,4R)-3-(4-Phenoxybenzenesulfonamido)-4-mercaptopyrrolidine Hydrochloride]", "values": [
      {"measurement": "Ki", "setting": "[2]", "result": 49, "unit": "nM"},
      {"measurement": "IC50", "setting": "[3]", "result": 6.3, "unit": "µM"},
      {"measurement": "Ki", "setting": "[4]", "result": 1.6, "unit": "µM"},
      {"measurement": "Ki", "setting": "[5]", "result": 230, "unit": "nM"}
    ]},
    {"molecule": "NC(=O)N1C[C@H](NS(=O)(=O)c2ccc(Oc3ccccc3)cc2)[C@@H](S)C1", "note": "[Example 12, (3S,4S)—N-Carbamoyl-3-(4-phenoxybenzene-sulfonamido)-4-mercaptopyrrolidine]", "values": [
      {"measurement": "Ki", "setting": "[2]", "result": 10, "unit": "nM"},
      {"measurement": "Ki", "setting": "[4]", "result": 1.7, "unit": "µM"},
      {"measurement": "Ki", "setting": "[5]", "result": 13, "unit": "nM"}
    ]},
    {"molecule": "O=C(OCc1ccccc1)N1C[C@H](S)[C@H](NS(=O)(=O)c2ccc(Oc3ccccc3)cc2)C1", "note": "[Example 13, (3R,4S)—N-Cbz-3-(4-Phenoxybenzenesulfonamido)-4-mercaptopyrrolidine]", "values": [
      {"measurement": "Ki", "setting": "[2]", "result": 1800, "unit": "nM"},
      {"measurement": "IC50", "setting": "[3]", "result": "~125", "unit": "µM"},
      {"measurement": "Ki", "setting": "[4]", "result": 5.4, "unit": "µM"},
      {"measurement": "Ki", "setting": "[5]", "result": 3100, "unit": "nM"}
    ]},
    {"molecule": "O=C(OCc1ccccc1)N1C[C@@H](S)[C@@H](NS(=O)(=O)c2ccc(Oc3ccccc3)cc2)C1", "note": "[Example 14, (3S,4R)—N-Cbz-3-(4-Phenoxybenzenesulfonamido)-4-mercaptopyrrolidine]", "values": [
      {"measurement": "Ki", "setting": "[2]", "result": 800, "unit": "nM"},
      {"measurement": "IC50", "setting": "[3]", "result": "> 3", "unit": "µM"},
      {"measurement": "Ki", "setting": "[4]", "result": 3.4, "unit": "µM"},
      {"measurement": "Ki", "setting": "[5]", "result": 2200, "unit": "nM"}
    ]},
    {"molecule": "CNC(=O)[C@H](Cc1c[nH]c2ccccc12)NC(=O)[C@@H](CC(=O)NO)CC(C)C", "note": "[GM6001]", "values": [
      {"measurement": "clinical signs of EAE", "setting": "EAE animal model", "result": "suppressed the development or reversed clinical signs of EAE in a dose-dependent way"},
      {"measurement": "intimal hyperplasia and collagen content", "setting": "stented arteries", "result": "significantly inhibited"},
      {"measurement": "lumen area", "setting": "stented arteries", "result": "increasing the lumen area"},
      {"measurement": "rates of proliferation", "setting": "stented arteries", "result": "without affecting the rates of proliferation"}
    ]},
    {"molecule": "CNC(=O)[C@@H](NC(=O)[C@H](CC(C)C)[C@H](C)C(=O)NO)c1ccccc1", "note": "[KB-R7785]", "values": [
      {"measurement": "mortality", "setting": "lethal acute GVHD", "result": "reduced mortality"},
      {"measurement": "plasma glucose and insulin levels", "setting": "insulin resistance", "result": "significant decrease"}
    ]}
  ]
}
